From US8822485B2, “Amino heteroaryl compounds as beta-secretase modulators and methods of use” (Amgen Inc., priority 2010, dated 2014)

Columns and labels:
BACE1 = BACE1 (Homo sapiens, UniProt P56817); experiment: In vitro enzymatic BACE FRET assay; assay type: biochemical; conditions: IC50 range class; 0.2 nM enzyme, 50 nM FRET substrate, pH 4.2
Method: In Vitro Enzymatic BACE FRET (Fluorescence Resonance Energy Transfer) Assay (Enzyme Assay Data in Table 1)
The assay buffer used in this screen is 0.05 M acetate, pH 4.2, 10% DMSO final, 100 uM genapol (which is a nonionic detergent, below its Critical Micelle Concentration). The Beta Secretase enzyme (0.2 nM) is pre-incubated for one hour with inhibitors, typically in about 1 uL of DMSO according to a serial dilution, are added thereto. The assay is effectively started by the addition of FRET substrate (50 nM) and the combination is incubated for one hour. The FRET assay is terminated with by addition of Tris buffer, which raises the pH to neutrality, and the fluorescence is determined. The FRET substrate is a peptide with commercially available fluorophore and quencher, on opposite sides of the BACE cleavage site. Proteolytic cleavage of the FRET substrate releases quenching of fluorescence (excitation […] and […]).
Of the compounds tested, the in-vitro BACE FRET enzyme data for each of Examples 1-33, where available at the time of filing this application, is provided in Table 1.

[1] = tested on: Aβ40 in conditioned medium of cells stably expressing Amyloid Precursor Protein (APP) (HEK cell); experiment: In vitro BACE cell-based assay (HEK cell assay, Aβ40 sandwich ELISA); conditions: Homo sapiens, HEK293; IC50 range class; inhibition of Aβ40 after 24 h incubation
Method: In Vitro BACE Cell-Based Assay:
The cell-based assay measures inhibition or reduction of Aβ40 □ in conditioned medium of test compound treated cells expressing amyloid precursor protein.
Cells stably expressing Amyloid Precursor Protein (APP) were plated at a density of 40K cells/well in 96 well plates (Costar). The cells were cultivated for 24 hours at 37° C. and 5% CO2 in DMEM supplemented with 10% FBS. The test compounds were then added to cells in 10-point dose response concentrations with the starting concentration being either 100 μM or 10 μM. The compounds were diluted from stock solutions in DMSO and the final DMSO concentration of the test compounds on cells was 0.1%. After 24 h of incubation with the test compounds the supernatant conditioned media was collected and the Aβ 40 levels were determined using a sandwich ELISA. The IC50 of the compound was calculated from the percent of control or percent inhibition of Aβ40 as a function of the concentration of the test compound.
The sandwich ELISA to detect Aβ 40 was performed in 96 well microtiter plates, which were pre-treated with goat anti-rabbit IgG (Pierce). The capture and detecting antibody pair that were used to detect Aβ 40 from cell supernatants were affinity purified pAb40 (Biosource) and biotinylated 6E10 (Signet Labs Inc.), respectively. The optimal concentration for the pAb40 antibody was 3 μg/ml in Superblock/TBS (Pierce) that was supplemented with 0.05% Tween 20 (Sigma). Optimal concentration for the detection antibody 6E10-biotinylated was 0.5 μg/ml in Superblock/TBS (Pierce) that had been supplemented with 2% normal goat serum and 2% normal mouse serum.
Cellular supernatants were incubated with the capture antibody for 3 h at 4° C., followed by 3 wash steps in TBS-tween (0.05%). The detecting antibody incubation was for 2 h at 4° C., again followed by the wash steps as described previously. The final readout of the ELISA is Time-Resolved Fluorescence (counts per minute) using Delfia reagents Streptavidin-Europium and Enhancement solutions (Perkin Elmer) and the Victor 2 multilabel counter (Perkin Elmer).
Of the compounds tested, the cell based assay data for each of Examples 1-33, where available at the time of filing this application, is provided in Table 1.

Chain of BACE1 (P56817 46-501, species assumed): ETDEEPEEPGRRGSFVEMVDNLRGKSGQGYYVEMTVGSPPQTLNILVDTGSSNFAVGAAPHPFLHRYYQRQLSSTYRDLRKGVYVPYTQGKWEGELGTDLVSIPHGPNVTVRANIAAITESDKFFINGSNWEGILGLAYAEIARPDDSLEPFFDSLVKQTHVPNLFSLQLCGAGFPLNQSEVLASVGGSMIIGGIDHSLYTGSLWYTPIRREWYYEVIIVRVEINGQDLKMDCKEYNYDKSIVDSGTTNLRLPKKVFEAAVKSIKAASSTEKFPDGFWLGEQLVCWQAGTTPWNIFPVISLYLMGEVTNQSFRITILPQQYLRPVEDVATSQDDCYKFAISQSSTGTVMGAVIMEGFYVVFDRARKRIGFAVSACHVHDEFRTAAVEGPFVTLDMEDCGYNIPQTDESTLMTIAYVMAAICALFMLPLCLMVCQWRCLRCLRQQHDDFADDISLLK

SMILES | IC50 (BACE1) | IC50 [1]
Cc1ccccc1-c1ccc2nc(N)c(C3CCCC3c3cc(C4CCCC4)ncn3)cc2c1 (centres unmarked) [Example 1, 3-(2-(6-cyclopentylpyrimidin-4-yl)cyclopentyl)-6-o-tolylquinolin-2-amine] | < 100 nM | > 5000 nM
Cc1ccccc1-c1ccc2nc(N)c(C=Cc3cncc(C4=CCCCC4)c3)cc2c1 [Example 2, 3-(2-(5-cyclohexenylpyridin-3-yl)vinyl)-6-o-tolylquinolin-2-amine] | 100 to 1000 nM | > 5000 nM
CCc1cncc(CCc2cc3cc(-c4ccccc4C)ccc3nc2N)c1 [Example 5, 3-(2-(5-ethylpyridin-3-yl)ethyl)-6-o-tolylquinolin-2-amine] | 1000 to 5000 nM | 1000 to 5000 nM
Cc1cccnc1-c1ccc2nc(N)c(CCc3cc(CC(C)(C)C)ncn3)cc2c1 [Example 6, 6-(3-methylpyridin-2-yl)-3-(2-(6-neopentylpyrimidin-4-yl)ethyl)quinolin-2-amine] | 100 to 1000 nM | 1000 to 5000 nM
Cc1ccccc1-c1ccc2nc(N)c(CC(C)c3cc(CC(C)(C)C)ncn3)cc2c1 (centres unmarked) [Example 9, 3-(2-(6-neopentylpyrimidin-4-yl)propyl)-6-o-tolylquinolin-2-amine] | < 100 nM | 500 to 1000 nM
Cc1cccnc1-c1ccc2nc(N)c(CC(C)c3cc(CC(C)(C)C)ncn3)cc2c1 (centres unmarked) [Example 15, 6-(3-methylpyridin-2-yl)-3-(2-(6-neopentylpyrimidin-4-yl)propyl)quinolin-2-amine] | 100 to 1000 nM | 500 to 1000 nM
Cc1cccnc1-c1ccc2nc(N)c(CCc3cc(C(C)(C)C)ncn3)cc2c1 [Example 16, 3-(2-(6-tert-butylpyrimidin-4-yl)ethyl)-6-(3-methylpyridin-2-yl)quinolin-2-amine] | 100 to 1000 nM | 1000 to 5000 nM
Cc1ccccc1-c1ccc2nc(N)c(CCc3cc4ccccc4[nH]3)cc2c1 [Example 17, 3-(2-(1H-indol-2-yl)ethyl)-6-o-tolylquinolin-2-amine] | 1000 to 5000 nM | 500 to 1000 nM
Cc1ccccc1-c1ccc2nc(N)c(CCc3cncc(CC(C)C)c3)cc2c1 [Example 18, 3-(2-(5-isobutylpyridin-3-yl)ethyl)-6-o-tolylquinolin-2-amine] | 100 to 1000 nM | 1000 to 5000 nM
Cc1ccccc1-c1ccc2nc(N)c(CCc3cnn(Cc4ccccc4)c3)cc2c1 [Example 19, 3-(2-(1-benzyl-1H-pyrazol-4-yl)ethyl)-6-o-tolylquinolin-2-amine] | 100 to 1000 nM | 1000 to 5000 nM
Cc1ccccc1-c1ccc2nc(N)c(CCc3cncc(CC(C)(C)C)c3)cc2c1 [Example 21, 3-(2-(5-neopentylpyridin-3-yl)ethyl)-6-o-tolylquinolin-2-amine] | 100 to 1000 nM | > 5000 nM
Cc1ccccc1-c1ccc2nc(N)c(CC(C)c3cncc(C4CCCCO4)c3)cc2c1 (centres unmarked) [Example 26, 3-(2-(5-(tetrahydro-2H-pyran-2-yl)pyridin-3-yl)propyl)-6-o-tolylquinolin-2-amine] | 100 to 1000 nM | 1000 to 5000 nM
Cc1ccccc1-c1ccc2nc(N)c(CCc3cnco3)cc2c1 [Example 28, 3-(2-(oxazol-5-yl)ethyl)-6-o-tolylquinolin-2-amine] | 1000 to 5000 nM | > 5000 nM
Cc1ccccc1-c1ccc2nc(N)c(CCc3cncc(C4CCCCO4)c3)cc2c1 (centres unmarked) [Example 31, 3-(2-(5-(tetrahydro-2H-pyran-2-yl)pyridin-3-yl)ethyl)-6-o-tolylquinolin-2-amine] | 100 to 1000 nM | 1000 to 5000 nM

More lines, main results first:

IC50 (BACE1) | SMILES | IC50 [1]
< 100 nM | Cc1cccc(C(=O)N2CCCC2C)c1-c1ccc2nc(N)c(CCc3cncnc3)cc2c1 (racemic) [Example 32, (±)-(2-(2-amino-3-(2-(pyrimidin-5-yl)ethyl)quinolin-6-yl)-3-methylphenyl)(2-methylpyrrolidin-1-yl)methanone] | < 500 nM
< 100 nM | Cc1ccccc1-c1ccc2nc(N)c(C3OCCCC3c3cc(CC(C)(C)C)ncn3)cc2c1 (single isomer, unassigned) [Example 7] | 1000 to 5000 nM
< 100 nM | Cc1ccccc1-c1ccc2nc(N)c(CCc3cncc(C4CCCCC4)c3)cc2c1 [Example 3, 3-(2-(5-cyclohexylpyridin-3-yl)ethyl)-6-o-tolylquinolin-2-amine] | > 5000 nM
< 100 nM | Cc1ccccc1-c1ccc2nc(N)c(CCc3cc(C(C)(C)C)ncn3)cc2c1 [Example 8, 3-(2-(6-tert-butylpyrimidin-4-yl)ethyl)-6-o-tolylquinolin-2-amine] | 1000 to 5000 nM
100 to 1000 nM | CCc1cc(C(C)Cc2cc3cc(-c4ccccc4C)ccc3nc2N)ncn1 (centres unmarked) [Example 10, 3-(2-(6-ethylpyrimidin-4-yl)propyl)-6-o-tolylquinolin-2-amine] | 1000 to 5000 nM
100 to 1000 nM | Cc1ccccc1-c1ccc2nc(N)c(COc3cc(C(F)(F)F)ncn3)cc2c1 [Example 11, 6-o-tolyl-3-((6-(trifluoromethyl)pyrimidin-4-yloxy)methyl)quinolin-2-amine] | > 5000 nM
< 100 nM | Cc1ccccc1-c1ccc2nc(N)c(CC(C)c3cc(C4CCCC4)ncn3)cc2c1 (centres unmarked) [Example 13, 3-(2-(6-cyclopentylpyrimidin-4-yl)propyl)-6-o-tolylquinolin-2-amine] | 1000 to 5000 nM
> 5000 nM | CCc1cc(OCc2cc3cc(-c4ccccc4C)ccc3nc2N)ncn1 [Example 14, 6-o-tolyl-3-((6-ethylpyrimidin-4-yloxy)methyl)quinolin-2-amine] | > 5000 nM
100 to 1000 nM | Cc1cccnc1-c1ccc2nc(N)c(CCc3cc(C4CCOCC4)ncn3)cc2c1 [Example 20, 6-(3-methylpyridin-2-yl)-3-(2-(6-(tetrahydro-2H-pyran-4-yl)pyrimidin-4-yl)ethyl)quinolin-2-amine] | 1000 to 5000 nM
100 to 1000 nM | Cc1ccccc1-c1ccc2nc(N)c(CCc3cncc(CCC(C)(C)C)c3)cc2c1 [Example 22, 3-(2-(5-(3,3-dimethylbutyl)pyridin-3-yl)ethyl)-6-o-tolylquinolin-2-amine] | > 5000 nM
1000 to 5000 nM | Cc1ccccc1-c1ccc2nc(N)c(CCc3cccc(C(F)(F)F)c3)cc2c1 [Example 23, 6-o-tolyl-3-(3-(trifluoromethyl)phenethyl)quinolin-2-amine] | > 5000 nM
1000 to 5000 nM | Cc1ccccc1-c1ccc2nc(N)c(C=Cc3cnn(C4CCCCC4)c3)cc2c1 [Example 24, 3-(2-(1-cyclohexyl-1H-pyrazol-4-yl)vinyl)-6-o-tolylquinolin-2-amine] | > 5000 nM
< 100 nM | Cc1ccccc1-c1ccc2nc(N)c(CCc3cnn(C4CCCCC4)c3)cc2c1 [Example 25, 3-(2-(1-cyclohexyl-1H-pyrazol-4-yl)ethyl)-6-o-tolylquinolin-2-amine] | 1000 to 5000 nM
< 100 nM | Cc1ccccc1-c1ccc2nc(N)c(CC(C)c3cncc(C4CCCCC4)c3)cc2c1 (centres unmarked) [Example 27, 3-(2-(5-cyclohexylpyridin-3-yl)propyl)-6-o-tolylquinolin-2-amine] | > 5000 nM
1000 to 5000 nM | Cc1ccccc1-c1ccc2nc(N)c(CCc3ccccn3)cc2c1 [Example 29, 3-(2-(pyridin-2-yl)ethyl)-6-o-tolylquinolin-2-amine] | > 5000 nM
< 100 nM | Cc1ccccc1-c1ccc2nc(N)c(CC(C)c3cncc(C4CCCC4)c3)cc2c1 (centres unmarked) [Example 30, 3-(2-(5-cyclopentylpyridin-3-yl)propyl)-6-o-tolylquinolin-2-amine] | 1000 to 5000 nM
< 100 nM | Cc1cccc(C(=O)N2CCCC2)c1-c1ccc2nc(N)c(CCc3cncnc3)cc2c1 [Example 33, (2-(2-amino-3-(2-(pyrimidin-5-yl)ethyl)quinolin-6-yl)-3-methylphenyl)(pyrrolidin-1-yl)methanone] | < 500 nM
